# What was measured:
# [1] = biological target: T1, N-36/C-34 complex (HIV-1 gp41 core) (Human immunodeficiency virus type 1 group M subtype B, UniProt P04578); test: biochemical; type: binding; conditions: for IC50 ± SD NC-1 binding: N-36 2 μM preincubated with compound, then C-34 2 μM; for Inhibitory activity on complex formation by N-36 and C-34 (in words): no concentration stated
# T1 construct: Peptides derived from the NHR and CHR regions of gp41, designated N- and C-peptides; made in house; host or cells: chemical synthesis (solid-phase FMOC)
# Procedure: For detection of peptide complexes, a direct and a sandwich ELISA were used. In the direct ELISA, the N- and C-peptides were mixed at equimolar concentration in PBS and diluted in coating buffer. Then, the peptide complexes were directly coated onto the wells of microplate. In the sandwich ELISA, the plate was coated with IgG (10 μg/ml) purified from rabbit antisera directed against N36(L6)C34, followed by the addition of the peptide complexes formed by mixing N- and C-peptides in PBS in equimolar concentrations. To screen for antiviral agents, compounds were pre-incubated with N-peptides at 37° C. for 30 minutes before mixing with the C-peptides. The binding of the peptide complexes to the antibodies was then detected as described above.
# The percentage of inhibition by the compounds of the binding of NC-1 to the peptide complexes was calculated as described in Jiang, S., K. Lin, and A. R. Neurath, 1991, “Enhancement of human immunodeficiency virus type-1 (HIV-1) infection by antisera to peptides from the envelope glycoproteins gp120/gp41”, J. Exp. Med., 174, 1557-1563.
# A sandwich ELISA was established to screen for compounds that interfere with the formation of the N-36/C-34 complex. N-36 (2 μM) was preincubated with compounds at graded concentrations at 37° C. for 30 minutes, followed by the addition of C-34 (2 μM). After incubation at 37° C. for 30 minutes, the mixture was added to wells of a 96-well polystyrene plate (Immulon I, Dynatech Laboratories, Inc., Chantilly, Va.) which were precoated with IgG (10 μg/ml) purified from rabbit antisera directed against N36(L6)C34. […] Absorbance at 450 nm (A450) was read using an ELISA reader (Dynatech Laboratories, Inc., Chantilly, Va.). The percentage of inhibition by the compounds of the binding of NC-1 to the peptide complexes was calculated as described in Jiang S., K. Lin, and A. R. Neurath, 1991, “Enhancement of human immunodeficiency virus type-1 (HIV-1) infection by antisera to peptides from the envelope glycoproteins gp120/gp41”, J. Exp. Med., 174, 1557-1563. The concentration for 50% inhibition (IC50) was calculated using a computer program, designated Calcusyn (Chou, T.-C., 1991, “The median-effect principle and the combination index for quantitation of synergism and antagonism. In Synergism and Antagonism in Chemotherapy”, T.-C. Chou and D. C. Rideout, editors, Academic Press, San Diego, 61-102).
# [2] = test system: H9/HIV-1IIIB cells and MT-2 cells; test: cells; type: cell-based; conditions: for IC50 ± SD Cell fusion: 37° C., 2 hours; for Inhibitory activity on HIV-1-mediated cell fusion (in words): no concentration stated
# Procedure: A dye transfer assay was used for detection of HIV-1-mediated cell fusion as described in Jiang et al., Nature, 365, 113 (1993). H9/HIV-1IIIB cells were labeled with a fluorescent reagent, 2′,7′-bis-(2-carboxyethyl)-5-and-6-carboxyfluorescein acetoxyethyl ester (BCECF-AM), (Molecular Probes, Inc., Eugene, Oreg.) and incubated with MT-2 cells (ratio=1:10) in a 96-well plate at 37° C. for 2 hours in the presence or absence of peptides or compounds tested. The fused and unfused BCECF-labeled HIV-1 infected cells were counted under an inverted fluorescence microscope (Zeiss, Germany) with an eyepiece micrometer discs. The percentage of inhibition of cell fusion was calculated as described in Jiang et al., 1993, Nature, 365, 113.
# A dye transfer assay was used for detection of HIV-1 mediated cell fusion as described in Jiang, S., K. Lin, N. Strick, and A. R. Neurath, 1993, Inhibition of HIV-1 infection by a fusion domain binding peptide from HIV-1 envelope glycoprotein gp41, Biochem. Biophys. Res. Commun., 195, 533-538.
# H9/HIV-1IIIB cells were labeled with a fluorescent reagent, 2′,7′-bis-(2-carboxyethyl)-5-and-6-carboxyfluorescein acetoxyethyl ester (BCECF-AM) (Molecular Probes, Inc., Eugene, Oreg.) and then incubated with MT-2 cells (ratio=1:10) in 96-well plates at 37° C. for 2 hours in the presence or absence of the compounds tested. The fused and unfused BCECF-labeled HIV-1 infected cells were counted under an inverted fluorescence microscope (Zeiss, Germany) with an eyepiece micrometer disc. The percentage of inhibition of cell fusion and the IC50 values were calculated as described in Jiang et al., (1993), Biochem. Biophys. Res. Commun., 195, 533-538.
# HIV-1IIIB = test: HIV-1-mediated cytopathic effect (CPE), XTT; type: cell-based; conditions: for Selective Index (S.I.) = CC50/IC50 for CPE / IC50 ± SD CPE: MT-2 cells; for IC50 ± SD CPE: sixth day post infection
# Procedure: The inhibitory activity of the compounds was determined by a calorimetric method based on protection of cells against HIV-1-mediated CPE, as described in Jiang et al., (1991), J. Exp. Med., 174, 1557-1563. 1×10^4 MT-2 cells in 96-well plates were infected with diluted HIV-1IIIB in 200 μl RPMI 1640 medium containing 10% FBS in the presence of compounds at graded concentrations. After 1 hour, 24 hours and 4 days, half of the culture media were changed. On the sixth day post infection, an indicator, XTT tetrazolium dye (1 mg/ml; 50 μl/well; PolySciences, Inc., Warrington, Pa.), was added to the cells. After 4 hours, the soluble intracellular formazan was determined calorimetrically at 450 nm. The percent of inhibition of CPE and the IC50 values were calculated as described above.
# MT-2 cells = test: In vitro cytotoxicity, XTT; type: cell-based
# Procedure: The in vitro cytotoxicity for MT-2 cells of the compounds was determined in 96-well plates using the XTT dye to measure cell viability in the absence of virus. Ten μl of 5% TRITON X-100 were added to the wells corresponding to positive controls (“P”) and 10 μl medium was added to wells corresponding to negative controls (“N”). The percent cytotoxicity was calculated using the following formula: % cytotoxicity=[(E−N)/(P−N)]×100%, wherein “E” represents experimental data in the presence of compounds. The concentration corresponding to 50% cytotoxicity (CC50) for MT-2 cells was calculated using the Calcusyn computer program. The selectivity index (S.I.=CC50/IC50) for each compound was calculated.
# [3] = biological target: T2, preformed N36/C34 complex (Human immunodeficiency virus type 1 group M subtype B, UniProt P04578); test: Control ELISA: NC-1 binding to preformed complex in the presence of compound; parameters: species or system HIV-1; conditions: different concentrations of compound
# T2 construct: Peptides derived from the NHR and CHR regions of gp41, designated N- and C-peptides; made in house; host or cells: chemical synthesis (solid-phase FMOC)
# Excerpt: The position might be taken that ADJ-J1, selected by a sandwich ELISA, may not block the complex formation by N- and C-peptides, but instead block NC-1 binding to the complex, either due to its association with MAb NC-1 or with the N36/C34 complex. The first possibility was excluded, since the antibody-coated wells of the plastic plates were extensively washed after addition of the mixture of N36, ADS-J1 and C34 and before. addition of MAb NC-1, excluding the presence of unbound ADS-J1, which could bind to MAb NC-1. To determine whether or not ADS-J1 binds to the surface of the N36/C34 complex and blocks NC-1 binding, a control experiment was conducted in which the complex In was preformed by mixing N36 and C34 at equimolar concentrations and captured to the wells of plastic plates coated with rabbit antibody directed against N36/C34 complex. Then, the binding of MAb NC-1 to the preformed complex in the presence of ADS-J1 at different concentrations was determined.
# T1 sequence (P04578 546-581, one chain of several): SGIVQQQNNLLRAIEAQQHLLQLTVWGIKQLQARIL
# T2 sequence (P04578 546-581, one chain of several): as above
Compound,IC50 ± SD NC-1 binding [1] [µg/mL],"Inhibition of NC-1 detectable complex formation by N-36 and C-34 (in words) ([1]; compounds at 10 μg/ml, FIG. 13)",Inhibitory activity on complex formation by N-36 and C-34 (in words) [1],Inhibitory activity on complex formation by N-36 and C-34 (in words) ([1]; listed as ADJ-1),IC50 ± SD Cell fusion [2] [µg/mL],"Inhibition of HIV-1-mediated cell fusion (in words) ([2]; compounds at 10 μg/ml, FIG. 13)",Inhibitory activity on HIV-1-mediated cell fusion (in words) [2],Inhibitory activity on HIV-1-mediated cell fusion (in words) ([2]; listed as ADJ-1),Selective Index (S.I.) = CC50/IC50 for CPE (HIV-1IIIB),IC50 ± SD CPE (HIV-1IIIB) [µg/mL],Inhibitory activity on HIV-1-mediated CPE (in words) (HIV-1IIIB; no concentration stated),CC50 ± SD (MT-2 cells) [µg/mL],Blocking of NC-1 binding to the preformed N36/C34 complex [3]
"7-[6-phenylamino-4-[4-[(3,5-disulfo-8-hydroxynaphthyl)azo]-2-methoxy-5-methylphenylamino]-1,3,5-triazine-2-yl]-4-hydroxy-3-[(2-methoxy-5-sulfophenyl)azo]-2-naphthalene sulfonic acid [ADS-J1]",0.73 ± 0.08,completely inhibited,promising inhibitory activity,most potent inhibitory activity,4.95 ± 1.31,completely inhibited,promising inhibitory activity,most potent inhibitory activity,35.24,8.29 ± 1.13,promising inhibitory activity,292.16 ± 2.27,unable to block
COc1ccc2c(c1)CCC/C2=N\OC(=O)Nc1ccccc1-c1ccccc1 [ADS-J8],>100,,,,>100,,,,≦1.00,>100,,46.83 ± 4.93,
Cc1ccc(C(=O)Nc2cccc(C(=O)N/N=C/c3ccc(Br)cc3)c2)cc1 [ADS-J3],>100,,,,>100,,,,≦1.00,>100,,24.91 ± 2.62,

# — US6596497B1, “Screening of antiviral compounds targeted to the HIV-1 gp41 core structure” (New York Blood Center, Inc., priority 1999, dated 2003)
